Results: patent US8563248B2, “Compositions and methods for detection of colorectal cancer” (priority 2005, dated 2013)

What was measured:
[1] = test system: IBABP-L mRNA; assay: Regulation of IBABP-L expression in Caco-2 cells, quantitative RT-PCR; assay type: cell-based, human; details: 24 h, normalized to ARPP0
Method: (§1) The expression of IBABP-L and IBABP was measured by quantitative RT-PCR. The mRNA copy number of each variant is normalized to the expression the housekeeping gene ARPP0. Values in the figure represent the average of three experiments with each replicate performed in duplicate.
(§2) To determine the relative expression levels of IBABP-L and IBABP, a two-step quantitative RT-PCR procedure was used. In the first step, complementary DNA (cDNA) was synthesized from total RNA. […] In the second step, quantitative PCT (QPCR) was carried out on a Mx 3000P Real-Time PCR System (Stratagene, La Jolla, Calif.) using a solution containing diluted cDNA (1:20; 2.0 μl), 1×SYBR Green PCR Master Mix (Applied Biosystems, Foster City, Calif.), and primers for IBABP-L, IBABP, or ARPP0 (0.25 μM). […]
(§3) Caco-2 cells were seeded in six-well plates (Falcon) at 2×10^5 cells/well. […] Cells were harvested, cellular RNA was isolated using the RNeasy Mini Kit (Qiagen) according to manufacturer instruction, and expression of IBABP variants was determined by QPCR as described above. […]

[2] = test system: IBABP mRNA; assay: Regulation of IBABP expression in Caco-2 cells, quantitative RT-PCR; assay type: cell-based, human; details: 100 nM, 24 h, normalized to ARPP0
Method: as §1, §2, §3

[3] = target: T1, BAR (Homo sapiens, UniProt Q96RI1); details: gene-selective BAR modulator; cited from earlier work
T1 sequence (Q96RI1 1-486): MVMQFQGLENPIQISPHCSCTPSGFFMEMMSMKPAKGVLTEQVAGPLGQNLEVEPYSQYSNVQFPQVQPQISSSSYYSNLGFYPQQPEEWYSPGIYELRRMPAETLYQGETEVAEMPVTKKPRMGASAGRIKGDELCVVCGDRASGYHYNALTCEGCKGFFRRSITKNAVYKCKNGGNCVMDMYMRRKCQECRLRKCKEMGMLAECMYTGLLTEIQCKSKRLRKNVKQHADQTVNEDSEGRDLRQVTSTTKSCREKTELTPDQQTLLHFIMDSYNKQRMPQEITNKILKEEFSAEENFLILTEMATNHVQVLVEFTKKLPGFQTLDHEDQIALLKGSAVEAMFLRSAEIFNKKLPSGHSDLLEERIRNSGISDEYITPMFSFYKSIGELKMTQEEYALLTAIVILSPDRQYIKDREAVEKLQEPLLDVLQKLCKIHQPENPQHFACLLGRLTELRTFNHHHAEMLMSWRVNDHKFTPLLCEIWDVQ

## CC1=C(/C=C/C(C)=C\C=C\C(C)=C\C(=O)O)C(C)(C)CCC1 [9cRA, 9-cis-retinoic acid]
[1]; 100 nM
  effect on expression of IBABP-L: without effect
[2]
  effect on expression of IBABP: up-regulated

## CCCCCCOc1c(\C(C)=C/C=C/C(C)=C/C(=O)O)cc(C(C)C)cc1C(C)C [AGN34]
[3]
  action on CYP7A1: agonist
  action on IBABP: antagonist
  action on SHP: neutral

## C[C@H](CCC(=O)O)[C@H]1CC[C@H]2[C@@H]3[C@H](O)C[C@@H]4C[C@H](O)CC[C@]4(C)[C@H]3CC[C@]12C [CDCA, chenodeoxycholic acid]
[1]; 100 μM
  effect on expression of IBABP-L: without effect
